Read-outs that look alike come from different tables or passages of the source.
How the values were obtained:
[1] = in vivo, cited from earlier work
[2] = rats, cited from earlier work
H3-receptor = H3-receptor (Homo sapiens, UniProt Q9Y5N1); conditions: receptor binding studies; cited from earlier work
[3] = Randomized placebo controlled double-blinded study of oral betahistine on food intake, caloric intake and weight in obese persons; assay type: in vivo, human
Procedure: Weight, caloric intake (24 hour recall) and appetite during the day (VAS, Visual Analogue Score) were obtained on day 0, 14 and 28 of the study. Subjects were instructed to eat according to their appetite without limitations. Statistical significance was assessed with t-test. BMI stands for body mass index.

[4] = pygmy goats, high doses intraperitoneally; cited from earlier work
[5] = Blood metabolite levels of a healthy overweight person before and after one month of betahistine; assay type: in vivo, human; parameters: Total cholesterol / HDL-cholesterol / LDL-cholesterol / Triglycerides: unit not given here
[6] = cited from earlier work
[7] = rats, cited from earlier work; remark: listed apart in the source
[8] = betahistine 16 mg orally twice a day, FIG. 5
[9] = Day 30, betahistine 16 mg twice daily, blood test

Sequence of H3-receptor (Q9Y5N1 whole entry): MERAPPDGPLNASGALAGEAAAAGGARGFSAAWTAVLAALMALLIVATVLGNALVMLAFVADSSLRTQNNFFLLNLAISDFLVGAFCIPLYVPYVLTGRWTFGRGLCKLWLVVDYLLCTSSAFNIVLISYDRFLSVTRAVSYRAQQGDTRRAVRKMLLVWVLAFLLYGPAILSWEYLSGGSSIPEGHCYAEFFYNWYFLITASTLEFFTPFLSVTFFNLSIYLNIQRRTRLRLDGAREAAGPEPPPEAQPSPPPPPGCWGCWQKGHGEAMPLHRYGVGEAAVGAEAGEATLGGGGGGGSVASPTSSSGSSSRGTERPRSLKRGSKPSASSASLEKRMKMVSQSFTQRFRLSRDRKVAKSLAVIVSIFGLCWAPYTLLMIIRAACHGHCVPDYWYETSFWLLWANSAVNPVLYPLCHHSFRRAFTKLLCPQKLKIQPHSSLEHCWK

CNCCc1ccccn1 [betahistine, 2-[2-(methylamino)ethyl]pyridine]
half-life [1]: about 3.5 hours | half-life ([1]; listed as Betahistine): 3.5 h | food intake ([2]; given intragastrically): this effect was not seen | food intake ([2]; given intraperitoneally): decreased food intake | H3-receptor activity (H3-receptor): potent H3-receptor antagonist | adverse event reported by a subject ([3]; Subject No. 5, day 5, betahistine 16 mg twice a day): food aversion that did not allow them to consume any food | reduction in carbohydrate consumption [3, 8]: 6% | reduction in fat consumption [3, 8]: 49% | reduction in protein consumption [3, 8]: 35% | total caloric intake ([3]; betahistine 16 mg orally twice a day, day 14 of treatment): 80 percents of the pre-treatment level | total caloric intake ([3]; betahistine 16 mg orally twice a day, day 28 of treatment): 68 percents of the pre-treatment level | subjects who lost more than 1 kg during the study period ([3]; treatment group, 28 day study, no food restriction): Four out of seven | food intake [4]: decreased food intake | water intake [4]: increased water intake | Fructoseamine [5, 9]: 202 | HDL-cholesterol [5, 9]: 58 | LDL-cholesterol [5, 9]: 84 | Total cholesterol [5, 9]: 155 | Triglycerides [5, 9]: 62 | Fructoseamine Change ([5]; Day 30 vs Day 0): +4% | HDL-cholesterol Change ([5]; Day 30 vs Day 0): +7% | LDL-cholesterol Change ([5]; Day 30 vs Day 0): −15% | Total cholesterol Change ([5]; Day 30 vs Day 0): −7% | Triglycerides Change ([5]; Day 30 vs Day 0): −10% | weight gain from week 2 to the end of the study ([6]; betahistine and olanzapine for 6 weeks, three patients): no weight gain was observed | mean weight gain compared with olanzapine/placebo-treated patients ([6]; betahistine/olanzapine-treated patients, 6 weeks): lower

Cc1nc(N)nc(N)c1-c1ccc(Cl)c(Cl)c1 [metoprine]
intakes of carbohydrates or protein ([7]; FIG. 2): no marked effect | daily energy intake and ingestion of fat ([7]; intraperitoneal injection): suppressed daily energy intake and ingestion of fat | half-life [1]: 216 h

Reference: US7728015B2, “Compositions for weight management” (Mor Research Applications Ltd., priority 2004, dated 2010)
